Experimental data taken from the NIST ThermoML archive (doi:10.1016/j.fluid.2015.12.032).

Conditions: 101.33 kPa, Liquid, Falling or rolling sphere viscometry

CCCC[N+]1(C)CCOCC1.N#C[C-](C#N)C#N [4-butyl-4-methylmorpholinium tricyanomethanide]
Conditions | viscosity [mPa·s]
288.15 K | 500.4
298.15 K | 225.5
308.15 K | 118.4
318.15 K | 69.89
328.15 K | 44.14
338.15 K | 30.31
348.15 K | 21.9
358.15 K | 16.33
368.15 K | 12.77
